Assay results published in ChEMBL document CHEMBL1124303, “Conformational requirements of substrates for activity with phenylethanolamine N-methyltransferase” (J Med Chem, 1988).

Columns and labels:
[1] = Vmax value was measured; format: ADME
[2] = Km value was measured; format: ADME
[3] = molecular target: T1, Phenylethanolamine N-methyltransferase (Bos taurus, UniProt P10938); assay: Binding affinity to phenylethanolamine N-methyltransferase(PNMT) in bovine
T1 sequence (P10938 whole entry): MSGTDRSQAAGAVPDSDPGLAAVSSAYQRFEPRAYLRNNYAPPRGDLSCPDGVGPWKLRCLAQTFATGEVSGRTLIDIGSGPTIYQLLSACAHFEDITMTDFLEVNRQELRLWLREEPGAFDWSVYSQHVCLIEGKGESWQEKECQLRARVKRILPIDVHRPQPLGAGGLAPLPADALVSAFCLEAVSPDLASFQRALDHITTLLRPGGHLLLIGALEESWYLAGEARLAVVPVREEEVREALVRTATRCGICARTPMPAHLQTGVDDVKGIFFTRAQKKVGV

[4] = Ratio of Vmax to Km of compound was determined; format: ADME

Compound | Vmax [1] | Km [2] | Ki [3] | Ratio [4]
NC[C@@H](O)c1ccccc1 | 2.2 nmol/min/mg | 70 µM | – | –
OC1CNCc2ccccc21 (stereo not drawn) | – | – | 176 µM | –
N[C@H]1CCc2ccccc2[C@H]1O | 0.15 nmol/min/mg | 22 µM | – | 68
N[C@H]1CCc2ccccc2[C@@H]1O | – | – | 9.4 µM | –
c1ccc2c(c1)CCNC2 [1,2,3,4-TETRAHYDROISOQUINOLINE] | – | – | 10 µM | –
